The record followed here is patent US20110178024A1, “AMYLOID BETA-PEPTIDES AND METHODS OF USE THEREOF” (Ben Gurion University of the Negev Research and Development …, priority 2008, published 2011).

Experiment [1] deals with Aβ-reactive T-cell line 1 (DRB1 1501/1502). Description: Human T-cell line proliferation assay, T-cell line 1. The format is cell-based. Particulars: for T-cell proliferation ([3H]thymidine incorporation), in words: T-cell line 1, autologous PBMCs. Here is the method:
(§1) PBMCs were isolated from the freshly drawn heparinized whole blood of each study participant (N=133) by Ficoll-Paque (Amersham Pharmacia Biotech, Uppsala, Sweden) gradient centrifugation, according to the manufacturer's instructions. Cells were cultured in 30 wells of 96-well round-bottom plates at 2×10^5 cells/well in RPMI medium (containing 2.5% nonautologous serum, 4 mM L-glutamine, 10 mM HEPES, 1 mM sodium pyruvate, and 10 mM nonessential amino acids) in the presence of pure human Aβ1-42 peptide. On the 5th day of culture, 10 U/ml of recombinant human interleukin (IL)-2 was added by replacing half of the medium with IL-2-containing medium. On day 7 the medium was replaced with IL-2-free medium. On day 10, half of the cells from each well were restimulated with irradiated autologous PBMCs in the presence or absence of 5 μg/ml Aβ for 48 hours and then pulsed with [3H] thymidine for 12 hours. Cells w then harvested, their radioactivity measured (in cpm), and the stimulation index (SI; (cpm in the presence of Aβ divided by cpm in the absence of Aβ) determined. Positive wells (SI≧2.5 and Δcpm of at least 2000) obtained in the split-well assay were restimulated, 14 days after their primary stimulation, in the presence of irradiated (7000 R) autologous PBMCs (2×10^5 cells/well) and Aβ1-42. T-cell lines were then supplemented with IL-2 (10 U/ml) after 48 hours and every 2 days thereafter until they reached a resting state.
(§2) Antigen (Ag)-specific proliferative responses were measured by culturing the contents of positive wells from the split-well assay with irradiated PBMCs (2×10^5/well) at 37° C. in duplicate wells in 96-well U-bottom microtiter plates in a final volume of 200 μl of culture medium alone or culture medium containing serially diluted nested Aβ peptides. After 48 hours, 1 μCi of [3H]thymidine (Amersham, Arlington Heights, Ill.) was added to each well in 50 μl of culture medium. The cells were harvested 16 hours later onto fiberglass filters with a cell harvester (Packard, Filtermate 196), and [3H]thymidine incorporation was determined with a Packard Matrix 96 direct counter.
In general terms: Uptake of a labelled nucleoside into DNA is a usual measure of proliferation.

Experiment [2] concerns splenocyte-derived T cells of HLA-DR15 humanized mice. Description: Proliferation assay of mouse-derived T cells, Aβ-immunized DR15 humanized mice. Particulars: for T-cell proliferation, in words: mice bearing the DRB1*1501 allele. The experiment is classed as cell-based. On the procedure:
(§3) Mice were immunized by subcutaneous injection of Aβ 1-42 ([…]) emulsified in complete Freund's Adjuvant (CFA) H37Ra (Difco, Detroit, Mich., USA) or in incomplete Freund's Adjuvant (IFA; Sigma, Israel), as indicated in Figure legends. When indicated, pertussis toxin (PTX) (List Biological Laboratories, Campbell, Calif., USA) was injected intravenously (200 ng/mouse) on day 0 and again 48 hours later.
(§4) Popliteal lymph nodes or spleens of immunized mice were harvested and cultured (5×10^6 cells/ml) in U-shaped 96-well-plate culture dishes in DMEM containing 10% fetal calf serum, 10 mM HEPES, 1 mM sodium pyruvate, 10 mM nonessential amino acids, 1% Pen/Strep, and […] b-mercaptoethanol. After 72 hours, 3[H]thymidine ([…]) was added. Cells were harvested after 12 hours, and their radioactivity was measured.

The test system of experiment [3] is Aβ-reactive T-cell line 2 (DRB1 1301/0401). Description: Human T-cell line proliferation assay, T-cell line 2. The format is cell-based. Particulars: T-cell line 2, autologous PBMCs. On the procedure:
as §1, §2

The next experiment concerns Aβ-reactive T-cell lines. Description: Epitope specificity and HLA-DR allele restriction of Aβ-reactive T-cell lines. The experiment is classed as cell-based, human. Particulars: autologous and semi-autologous PBMCs as antigen-presenting cells. On the procedure: as §1, §2
High-resolution HLA typing of PBMCs of the human subjects was carried out at the Brigham and Women's Hospital Clinical Laboratory using the PCR/RFLP method. Genomic DNA was extracted from whole blood or frozen cells. DNA was amplified using locus-specific and group-specific primers for DNA class II loci. DNA fragments were detected using agarose gel electrophoresis and subjected to restriction enzyme digestion, as recommended by the 10th International Histocompatibility Workshop (http://www.ihwg.org/components/ssopr.htm). The DNA fragments were then separated by agarose gel electrophoresis and the specific HLA-DR alleles were analyzed visually.
To identify the HLA-DR alleles that play a role in Aβ immunogenicity, Aβ-reactive T-cell lines were generated from the PBMCs of human subjects as described in Materials and Methods. These T cells were then restimulated with autologous or semi-autologous PBMCs (nonautologous PBMCs bearing one of the autologous DRB1 alleles) to determine their epitope specificity and identify their dominant epitope-presenting HLA-DR alleles. Overall, the PBMCs of 89 of the 133 individuals analyzed in this study yielded positive Aβ-reactive T-cell responses in the split-well assay as described in Materials and Methods and our previous publication ((2003). J Clin Invest 112:415-422). From these 89 PBMC samples, 39 Aβ-reactive T-cell lines were successfully generated and were analyzed for epitope specificity and HLA-DR allele restriction, as shown in FIG. 1. Table 2 lists the HLA-DR alleles whose expression by PBMCs was essential for proliferation of the Aβ-specific T-cell lines. The table also records the frequency of the HLA-DR alleles in our study population and lists the Aβ peptides harboring the dominant T-cell epitopes. […]

Experiment [4] concerns splenocyte-derived T cells of HLA-DR4 humanized mice. Description: Proliferation assay of mouse-derived T cells, Aβ-immunized DR4 humanized mice. The format is cell-based. Particulars: mice bearing the DR4 allele. On the procedure: as §3, §4
The target in the next experiment is HLA-DR15 (DRB1*1501) (human). Description: cell-based or functional assay.
The target of a further experiment is HLA-DR4 (DRB1*0401) (human). Description: cell-based or functional assay.

Entries after “also recorded” stand apart in the source; their conditions may differ.

Turning to “Aβ1-28: N-terminal fragment of Aβ, residues 1-28; nested overlapping Aβ peptide”, the “T-cell proliferation ([3H]thymidine incorporation), in words” value in experiment [1] is “only mild T-cell proliferation”. In experiment [2], the “T-cell proliferation, in words” value is on record as “only a mild T-cell response”.
For the molecule “Aβ19-33: nested overlapping Aβ peptide, residues 19-33 (FFAEDVGSNKGAIIG)”, the “T-cell proliferation ([3H]thymidine incorporation), in words” value in experiment [3] was “Substantially lower T-cell proliferation”.
As for “Aβ25-42: T-cell-stimulatory Aβ peptides between Aβ residues 25 and 42 (GSNKGAIIGLMVGGVVIA; Amyloid-beta protein 42; UniProt P05067 696-713, looked up, fragment)”, in the experiment with Aβ-reactive T-cell lines, the “DRB1 allele with which the T-cell-stimulatory Aβ peptide stimulates Aβ-reactive T-cell lines” value (from here on “DRB1 allele”) is on record as “DRB1*1501”.
As to GSNKGAIIGLMVGGV [Aβ25-39], the “SI (stimulation index), T-cell proliferation” value is 17.3 in experiment [1] (T-cell line 1, 5 μg peptide/ml, irradiated autologous PBMCs, 72 hours) and 8.8 in experiment [2] (DR15 mice, 10 μg/ml, 72 hours). Besides, the “T-cell proliferation ([3H]thymidine incorporation), in words” value in experiment [1] was “specifically stimulated”.
In the case of “KLVFFAEDVGSNKGA (listed as Homo sapiens) [Aβ16-30]”, the “T-cell proliferation ([3H]thymidine incorporation), in words” value in experiment [3] was “stimulated”.
Take “LVFFAEDVGSNKGAI (listed as Homo sapiens) [Aβ17-31]”: the “DRB1 allele” value in the experiment with Aβ-reactive T-cell lines is given as “DRB1*1301”. The “T-cell proliferation ([3H]thymidine incorporation), in words” value in experiment [3] was “stimulated”.
Regarding “QKLVFFAEDVGSNKG (listed as Homo sapiens) [Aβ15-29]”, the “DRB1 allele” value in the experiment with Aβ-reactive T-cell lines is reported as “DRB1*1001”.
In the case of “QKLVFFAEDVGSNKGAIIGL (listed as Homo sapiens) [Aβ15-34]”, the “DRB1 allele” value in the experiment on Aβ-reactive T-cell lines was “DRB1*0101”. Besides, in experiment [3], the “T-cell proliferation ([3H]thymidine incorporation), in words” value is listed as “stimulated”.
Consider “QKLVFFAEDVGSNKGAIIGLMVGGVVIA (listed as Homo sapiens) [Aβ15-42]”, for which the “DRB1 allele” value in the experiment with Aβ-reactive T-cell lines is “DRB1*1502; also recorded: DRB1*0301”. Besides, the “T-cell proliferation ([3H]thymidine incorporation), in words” value in experiment [1] and in experiment [3] was “triggered” each time. The “T-cell proliferation, in words” value in experiment [2] is “strong T-cell proliferation”; in experiment [4], “induced”.
Take “VFFAEDVGSNKGAII (listed as Homo sapiens) [Aβ18-32]”: the “DRB1 allele” value in the experiment on Aβ-reactive T-cell lines is reported as “DRB1*0404; also recorded: DRB1*0401”. In addition, in experiment [3], the “T-cell proliferation ([3H]thymidine incorporation), in words” value was “stimulated”.
Take GSNKGAIIGLMVGGV [Aβ25-39 peptide]: in the experiment with HLA-DR15 (DRB1*1501), the “T-cell line 1 proliferation, SI at 5 µg peptide/ml” value (“T-cell line 1 proliferation, SI” below) amounted to 17.3 SI and the “T-cell proliferation of splenocytes of Aβ-immunized DR15 mice, SI at 10 µg/ml” value was found to be 8.8 SI.
Regarding KLVFFAEDVGSNKGA [Aβ16-30 peptide], in the experiment with HLA-DR4 (DRB1*0401), the “T-cell line 2 proliferation, SI at 5 µg peptide/ml” value (“T-cell line 2 proliferation, SI” for short) is 6.4 SI and the “T-cell proliferation of splenocytes of Aβ-immunized DR4 mice, SI at 10 µg/ml” value was 5.9 SI.
Take LVFFAEDVGSNKGAI [Aβ17-31 peptide]: in the experiment with HLA-DR4 (DRB1*0401), the “T-cell line 2 proliferation, SI” value came to 6.2 SI and the “T-cell proliferation of splenocytes of Aβ-immunized DR4 mice, SI at 10 µg/ml” value was 6.1 SI.
Take EDVGSNKGAIIGLMV [Aβ22-36 peptide]: in the experiment with HLA-DR15 (DRB1*1501), the “T-cell line 1 proliferation, SI” value worked out at 10.2 SI.
In the case of VFFAEDVGSNKGAII [Aβ18-32 peptide], in the experiment with HLA-DR4 (DRB1*0401), the “T-cell line 2 proliferation, SI” value was found to be 6.1 SI and the “T-cell proliferation of splenocytes of Aβ-immunized DR4 mice, SI at 10 µg/ml” value was 9.2 SI.
With QKLVFFAEDVGSNKGAIIGLMVGGVVIA [Aβ15-42 peptide], in the experiment with HLA-DR4 (DRB1*0401), the “T-cell line 2 proliferation, SI” value turned out to be 7.8 SI and the “T-cell proliferation of splenocytes of Aβ-immunized DR4 mice, SI at 10 µg/ml” value amounted to 3.7 SI. Also, in the experiment with HLA-DR15 (DRB1*1501), the “T-cell line 1 proliferation, SI” value came out at 15.8 SI and the “T-cell proliferation of splenocytes of Aβ-immunized DR15 mice, SI at 10 µg/ml” value was determined as 14.2 SI.
In the case of KGAIIGLMVGGVVIA [Aβ28-42 peptide], in the experiment with HLA-DR15 (DRB1*1501), the “T-cell line 1 proliferation, SI” value was found to be 12.6 SI and the “T-cell proliferation of splenocytes of Aβ-immunized DR15 mice, SI at 10 µg/ml” value came to 12.2 SI.
